Results published in patent publication US20260216140A1, “USE OF ERGOTHIONEINE IN PREPARATION OF PRODUCT FOR PREVENTING OR INHIBITING CELL DAMAGE CAUSED BY ACETALDEHYDE” (BLOOMAGE BIOTECHNOLOGY CORPORATION LIMITED, priority 2022, published 2026).
Structures can show the parent of a compound that is named as a salt.

Assays:
Assay type in all cases: cell-based
CA9-22 cells [1] = assay: MTT cell activity of CA9-22 cells co-cultured with acetaldehyde (cell damage dose finding); settings: for Cell activity: 1 day, MTT, T/NT vs untreated = 100%
Experimental: • Experimental materials: acetaldehyde, DMEM medium. • Experimental sample solutions: 17.7 M acetaldehyde was diluted with DMEM medium to prepare experimental sample solutions with different final concentrations, and the concentrations are shown in Table 2. • Methods: After CA9-22 cells were co-cultured with different experimental sample solutions for 1 day, the experimental sample solutions were removed and MTT was added. After 3 hours, the supernatant was carefully aspirated and dimethyl sulfoxide (DMSO) was added. The absorbance of each well at 550 nm was detected by a microplate reader. The untreated well was used as control, the absorbance of the sample well was defined as T, the absorbance of the untreated well was defined as NT, NT was taken as 100%, and the ratio of T/NT of the sample well was taken as the cell activity.

CA9-22 cells [2] = assay: MTT cell activity of CA9-22 cells co-cultured with acetaldehyde plus ergothioneine (inhibition of acetaldehyde cell damage); settings: for Cell activity: 1 day, MTT
Description: • Experimental materials: acetaldehyde, ergothioneine and DMEM medium. • Experimental sample solutions: ergothioneine powder and 17.7M acetaldehyde were respectively diluted with DMEM medium, and then the two solutions were mixed in different ratios to prepare experimental sample solutions with different final concentrations, and the concentrations are shown in Table 3. • Methods: After CA9-22 cells were co-cultured with different experimental sample solutions for 1 day, the experimental sample solutions were removed and MTT was added. After 3 hours, the supernatant was carefully aspirated and dimethyl sulfoxide (DMSO) was added. The absorbance of each well at 550 nm was detected by a microplate reader. The untreated wells was used as control, the absorbance of the sample wells was defined as T, the absorbance of the untreated well was defined as NT, NT was taken as 100%, and the ratio of T/NT of the sample well was taken as the cell activity. On the basis of meeting the requirements of significant difference, the greater the cell activity %, the better the effect of inhibiting cell damage caused by acetaldehyde.

CA9-22 cells [3] = assay: MTT cell activity of CA9-22 cells co-cultured with ergothioneine alone (cytotoxicity); settings: for Cell activity: 1 day, MTT, T/NT vs untreated = 100%
Experimental: • Experimental materials: ergothioneine, DMEM medium. • Experimental sample solutions: ergothioneine powder was dissolved in DMEM medium to prepare experimental sample solutions with different final concentrations, and the concentrations are shown in Table 1. • Methods: CA9-22 cells purchased from ATCC were co-cultured with different experimental sample solutions for 1 day, then the experimental sample solutions were removed and MTT was added. After 3 hours, the supernatant was carefully aspirated and dimethyl sulfoxide (DMSO) was added. The absorbance of each well at 550 nm was detected by a microplate reader. The untreated well was used as control, the absorbance of the sample well was defined as T, the absorbance of the untreated well was defined as NT, NT was taken as 100%, and the ratio of T/NT of the sample well was taken as the cell activity.

Compound | Cell activity (CA9-22 cells [1]; acetaldehyde 0.0001M) | Cell activity (CA9-22 cells [1]; acetaldehyde 0.001M) | Cell activity (CA9-22 cells [1]; acetaldehyde 0.005M) | Cell activity (CA9-22 cells [1]; acetaldehyde 0.01M) | Cell activity (CA9-22 cells [1]; acetaldehyde 0.02M) | Cell damage after treating cells (CA9-22 cells [1]; different concentrations of acetaldehyde, more obvious with increasing concentration) | Cell activity (CA9-22 cells [2]; acetaldehyde 0.02 M alone, no ergothioneine (sample 2)) | Cell activity (CA9-22 cells [2]; acetaldehyde 0.02 M alone, no ergothioneine (sample 2), listed as acetaldehyde) | Cytotoxicity (CA9-22 cells [3]; 0.1-12.5 μM, test conditions of Example 1) | Cell activity (CA9-22 cells [3]; ergothioneine 0.1 μM) | Cell activity (CA9-22 cells [3]; ergothioneine 0.5 μM) | Cell activity (CA9-22 cells [3]; ergothioneine 2.5 μM) | Cell activity (CA9-22 cells [3]; ergothioneine 12.5 μM) | Cell activity (CA9-22 cells [2]; acetaldehyde 0.02 M + ergothioneine 0.01 μM (sample 3)) | Cell activity (CA9-22 cells [2]; acetaldehyde 0.02 M + ergothioneine 0.05 μM (sample 4)) | Cell activity (CA9-22 cells [2]; acetaldehyde 0.02 M + ergothioneine 0.1 μM (sample 5)) | Cell activity (CA9-22 cells [2]; acetaldehyde 0.02 M + ergothioneine 0.5 μM (sample 6)) | Cell activity (CA9-22 cells [2]; acetaldehyde 0.02 M + ergothioneine 2.5 μM (sample 7)) | Cell activity (CA9-22 cells [2]; acetaldehyde 0.02 M + ergothioneine 12.5 μM (sample 8)) | Effect on cell damage caused by acetaldehyde (CA9-22 cells [2]; acetaldehyde 0.02 M, ergothioneine added)
CC=O [Acetaldehyde, acetaldehyde] | 96% | 93% | 93% | 89% | 70% | will cause cell damage | 70% | 70% | – | – | – | – | – | – | – | – | – | – | – | –
C[N+](C)(C)[C@@H](Cc1c[nH]c(=S)[nH]1)C(=O)[O-] [Ergothioneine, 2-mercaptohistidine trimethyl internal salt] | – | – | – | – | – | – | – | – | no cytotoxicity | 101% | 100% | 107% | 106% | 71% | 76% | 81% | 83% | 83% | 85% | can reduce the cell damage caused by acetaldehyde
